Here are results for 28 molecules from US7378435B2, “Aryl-isoxazole-4-carbonyl-indole-carboxylic acid amide derivatives” (Hoffmann-La Roche Inc., priority 2005, dated 2008).

Molecules are shown by their SMILES. Where two headings read alike, the source gives them in different places.

The experiment has as its target T1, GABA A receptor α5β3γ2 (Homo sapiens, UniProt P18507+P31644).
T1 construct: expressed in transfected cells; host or cells: HEK293 (transiently transfected for the human receptors)
The experiment can be described thus: [3H]flumazenil competition binding, human GABA A α5β3γ2 receptors expressed in HEK293 cells. Here is the method:
The affinity of compounds at GABA A receptor subtypes was measured by competition for [3H]flumazenil (85 Ci/mmol; Roche) binding to HEK293 cells expressing rat (stably transfected) or human (transiently transfected) receptors of composition α1β3γ2, α2β3γ2, α3β3γ2 and α5β3γ2.
Cell pellets were suspended in Krebs-tris buffer (4.8 mM KCl, 1.2 mM CaCl2, 1.2 mM MgCl2, 120 mM NaCl, 15 mM Tris; pH 7.5; binding assay buffer), homogenized by polytron for ca. 20 sec on ice and centrifuged for 60 min at 4° C. (50000 g; Sorvall, rotor: SM24=20000 rpm). The cell pellets were resuspended in Krebs-tris buffer and homogenized by polytron for ca. 15 sec on ice. Protein was measured (Bradford method, Bio-Rad) and aliquots of 1 mL were prepared and stored at −80° C.
Radioligand binding assays were carried out in a volume of […] (96-well plates) which contained […] of cell membranes, [3H]flumazenil at a concentration of 1 nM for α1, α2, α3 subunits and 0.5 nM for α5 subunits and the test compound in the range of […]. Nonspecific binding was defined by 10^−5 M diazepam and typically represented less than 5% of the total binding. Assays were incubated to equilibrium for 1 hour at 4° C. and harvested onto GF/C uni-filters (Packard) by filtration using a Packard harvester and washing with ice-cold wash buffer (50 mM Tris; pH 7.5). After drying, filter-retained radioactivity was detected by liquid scintillation counting. Ki values were calculated using Excel-Fit (Microsoft) and are the means of two determinations.

[1] abbreviates: Table 1, human α5, [3H]flumazenil, mean of two determinations, read-out: Ki h.
Where [2] appears, read: human α5β3γ2, 0.5 nM [3H]flumazenil, mean of two determinations, read-out: Ki[μM] hα5.

On to `Cc1onc(-c2ccc(F)cc2)c1C(=O)c1c[nH]c2cc(C(=O)NC3CCC3)ccc12` [Example 25, 3-[3-(4-Fluoro-phenyl)-5-methyl-isoxazole-4-carbonyl]-1H-indole-6-carboxylicacidcyclobutylamide], for which the Ki (commonly the dissociation constant of the complex between target and ligand, obtained from inhibition or displacement) under setting [1] was 0.00675 µM; the Ki under setting [2] was 0.00675 µM. In the case of `Cc1onc(-c2ccccc2)c1C(=O)c1c[nH]c2cc(C(=O)NC3CCCC3)ccc12` [Example 10, 3-(5-Methyl-3-phenyl-isoxazole-4-carbonyl)-1H-indole-6-carboxylicacidcyclopentylamide], the Ki under setting [1] is 0.0137 µM. For `C#CCNC(=O)c1ccc2c(C(=O)c3c(-c4cccc(F)c4)noc3C(C)C)c[nH]c2c1` [Example 38, 3-[3-(3-Fluoro-phenyl)-5-isopropyl-isoxazole-4-carbonyl]-1H-indole-6-carboxylicacid prop-2-ynylamide], under setting [1], the Ki is 0.0315 µM. Take `Cc1onc(-c2cccc(F)c2)c1C(=O)c1c[nH]c2cc(C(=O)NC3CCCC3)ccc12` [Example 33, 3-[3-(3-Fluoro-phenyl)-5-methyl-isoxazole-4-carbonyl]-1H-indole-6-carboxylicacidcyclopentylamide]: the Ki under setting [1] worked out at 0.0953 µM.

`Cc1onc(-c2cccc(F)c2)c1C(=O)c1c[nH]c2cc(C(=O)NCCN3CCOCC3)ccc12` [Example 28, 3-[3-(3-Fluoro-phenyl)-5-methyl-isoxazole-4-carbonyl]-1H-indole-6-carboxylicacid (2-morpholin-4-yl-ethyl)-amide]: the Ki under setting [1] stood at 0.0227 µM. Take `Cc1onc(-c2ccccc2)c1C(=O)c1c[nH]c2cc(C(=O)NCc3ccccn3)ccc12` [Example 5, 3-(5-Methyl-3-phenyl-isoxazole-4-carbonyl)-1H-indole-6-carboxylicacid (pyridin-2-ylmethyl)-amide]: the Ki reads like this: under setting [1], 0.00395 µM; under setting [2], 0.00395 µM. `Cc1onc(-c2ccc(F)cc2)c1C(=O)c1c[nH]c2cc(C(=O)NC3CC3)ccc12` [Example 23, 3-[3-(4-Fluoro-phenyl)-5-methyl-isoxazole-4-carbonyl]-1H-indole-6-carboxylicacidcyclopropylamide]: the Ki amounted to 0.00305 µM under setting [1] and 0.00305 µM under setting [2].

For the molecule `Cc1onc(-c2cccc(F)c2)c1C(=O)c1cn(C)c2cc(C(=O)NCCN3CCOCC3)ccc12` [Example 41, 3-[3-(3-Fluoro-phenyl)-5-methyl-isoxazole-4-carbonyl]-1-methyl-1H-indole-6-carboxylic acid(2-morpholin-4-yl-ethyl)-amide], the Ki is 0.0249 µM. As for `Cc1onc(-c2cccc(F)c2)c1C(=O)c1c[nH]c2cc(C(=O)NC3CC3)ccc12` [Example 35, 3-[3-(3-Fluoro-phenyl)-5-methyl-isoxazole-4-carbonyl]-1H-indole-6-carboxylicacidcyclopropylamide], the Ki under setting [1] was 0.038 µM. Consider `Cc1onc(-c2ccccc2)c1C(=O)c1c[nH]c2cc(C(=O)NC3CCOCC3)ccc12` [Example 11, 3-(5-Methyl-3-phenyl-isoxazole-4-carbonyl)-1H-indole-6-carboxylicacid (tetrahydro-pyran-4-yl)-amide], for which the Ki runs as follows: under setting [1], 0.00545 µM; under setting [2], 0.00545 µM. With `Cc1onc(-c2cccc(F)c2)c1C(=O)c1c[nH]c2cc(C(=O)NCCc3cnc[nH]3)ccc12` [Example 26, 3-[3-(3-Fluoro-phenyl)-5-methyl-isoxazole-4-carbonyl]-1H-indole-6-carboxylicacid [2-(1H-imidazol-4-yl)-ethyl]-amide], the Ki under setting [1] was found to be 0.0235 µM.

As for `Cc1onc(-c2ccc(F)cc2)c1C(=O)c1c[nH]c2cc(C(=O)NCc3ccccn3)ccc12` [Example 13, 3-[3-(4-Fluoro-phenyl)-5-methyl-isoxazole-4-carbonyl]-1H-indole-6-carboxylicacid (pyridin-2-ylmethyl)-amide], the Ki was found to be 0.00565 µM under setting [1] and 0.00565 µM under setting [2]. `Cc1onc(-c2cccc(F)c2)c1C(=O)c1cn(C)c2cc(C(=O)NC3CCOCC3)ccc12` [Example 45, 3-[3-(3-Fluoro-phenyl)-5-methyl-isoxazole-4-carbonyl]-1-methyl-1H-indole-6-carboxylic acid(tetrahydro-pyrann-4-yl)-amide] came in with a Ki of 0.049 µM.

As to `CC(C)c1onc(-c2cccc(F)c2)c1C(=O)c1c[nH]c2cc(C(=O)NCc3ccco3)ccc12` [Example 36, 3-[3-(3-Fluoro-phenyl)-5-isopropyl-isoxazole-4-carbonyl]-1H-indole-6-carboxylicacid (furan-2-ylmethyl)-amide], the Ki under setting [1] was determined as 0.0454 µM.

For `Cc1onc(-c2cccc(F)c2)c1C(=O)c1cn(-c2ccccc2)c2cc(C(=O)NC3CCOCC3)ccc12` [Example 50, 3-[3-(3-Fluoro-phenyl)-5-methyl-isoxazole-4-carbonyl]-1-phenyl-1H-indole-6-carboxylic acid(tetrahydro-pyran-4-yl)-amide], the Ki is, setting by setting: under setting [1], 0.0098 µM; under setting [2], 0.0098 µM. As to `C#CCNC(=O)c1ccc2c(C(=O)c3c(-c4cccc(F)c4)noc3C)c[nH]c2c1` [Example 31, 3-[3-(3-Fluoro-phenyl)-5-methyl-isoxazole-4-carbonyl]-1H-indole-6-carboxylicacid prop-2-ynylamide], the Ki under setting [1] is 0.0319 µM. `Cc1onc(-c2cccc(F)c2)c1C(=O)c1c[nH]c2cc(C(=O)NCC3CC3)ccc12` [Example 30, 3-[3-(3-Fluoro-phenyl)-5-methyl-isoxazole-4-carbonyl]-1H-indole-6-carboxylicacidcyclopropylmethyl-amide]: the Ki under setting [1] amounted to 0.0537 µM. On to `Cc1onc(-c2cccc(F)c2)c1C(=O)c1cn(-c2ccccc2)c2cc(C(=O)NCC3CC3)ccc12` [Example 48, 3-[3-(3-Fluoro-phenyl)-5-methyl-isoxazole-4-carbonyl]-1-phenyl-1H-indole-6-carboxylic acidcyclopropylmethyl-amide], for which the Ki under setting [1] was 0.0138 µM. Take `Cc1onc(-c2ccc(F)cc2)c1C(=O)c1c[nH]c2cc(C(=O)NCC3CC3)ccc12` [Example 1, 3-[3-(4-Fluoro-phenyl)-5-methyl-isoxazole-4-carbonyl]-1H-indole-6-carboxylic acid cyclopropylmethyl-amide]: under setting [2], the Ki is 0.00645 µM. Take `Cc1onc(-c2ccc(F)cc2)c1C(=O)c1c[nH]c2cc(C(=O)NCCCN3CCOCC3)ccc12` [Example 17, 3-[3-(4-Fluoro-phenyl)-5-methyl-isoxazole-4-carbonyl]-1H-indole-6-carboxylicacid (3-morpholin-4-yl-propyl)-amide]: the Ki under setting [1] worked out at 0.0043 µM and the Ki under setting [2] amounted to 0.0043 µM.

The molecule `Cc1onc(-c2cccc(F)c2)c1C(=O)c1cn(-c2ccccc2)c2cc(C(=O)NC3CCCC3)ccc12` [Example 51, 3-[3-(3-Fluoro-phenyl)-5-methyl-isoxazole-4-carbonyl]-1-phenyl-1H-indole-6-carboxylic acidcyclopentylamide] returned a Ki of 0.0402 µM.

As to `Cc1onc(-c2cccc(F)c2)c1C(=O)c1c[nH]c2cc(C(=O)NCc3ccccn3)ccc12` [Example 27, 3-[3-(3-Fluoro-phenyl)-5-methyl-isoxazole-4-carbonyl]-1H-indole-6-carboxylicacid (pyridin-2-ylmethyl)-amide], the Ki under setting [1] was found to be 0.0394 µM. For the molecule `Cc1onc(-c2ccccc2)c1C(=O)c1c[nH]c2cc(C(=O)NCCc3cnc[nH]3)ccc12` [Example 4, 3-(5-Methyl-3-phenyl-isoxazole-4-carbonyl)-1H-indol-6-carboxylicacid [2-(1H-imidazol-4-yl)-ethyl]-amide], the Ki by setting is: under setting [1], 0.00265 µM; under setting [2], 0.00265 µM. As for `Cc1onc(-c2cccc(F)c2)c1C(=O)c1c[nH]c2cc(C(=O)NCc3ccco3)ccc12` [Example 29, 3-[3-(3-Fluoro-phenyl)-5-methyl-isoxazole-4-carbonyl]-1H-indole-6-carboxylicacid (furan-2-ylmethyl)-amide], the Ki under setting [1] worked out at 0.0621 µM. Regarding `CC(C)c1onc(-c2cccc(F)c2)c1C(=O)c1c[nH]c2cc(C(=O)NC3CCOCC3)ccc12` [Example 39, 3-[3-(3-Fluoro-phenyl)-5-isopropyl-isoxazole-4-carbonyl]-1H-indole-6-carboxylicacid (tetrahydro-pyran-4-yl)-amide], the Ki under setting [1] turned out to be 0.0386 µM.

For the molecule `Cc1onc(-c2ccccc2)c1C(=O)c1c[nH]c2cc(C(=O)NC3CC3)ccc12` [Example 8, 3-(5-Methyl-3-phenyl-isoxazole-4-carbonyl)-1H-indole-6-carboxylicacidcyclopropylamide], the Ki runs as follows: under setting [1], 0.003 µM; under setting [2], 0.003 µM. As to `C#CCN(C)C(=O)c1ccc2c(C(=O)c3c(-c4ccc(F)cc4)noc3C)c[nH]c2c1` [Example 19, 3-[3-(4-Fluoro-phenyl)-5-methyl-isoxazole-4-carbonyl]-1H-indole-6-carboxylicacid methyl-prop-2-ynyl-amide], the inhibitory constant (Ki) under setting [1] is 0.0606 µM. Molecule `Cc1onc(-c2cccc(F)c2)c1C(=O)c1cn(C)c2cc(C(=O)NCc3ccco3)ccc12` [Example 42, 3-[3-(3-Fluoro-phenyl)-5-methyl-isoxazole-4-carbonyl]-1-methyl-1H-indole-6-carboxylic acid(furan-2-ylmethyl)-amide] yielded a Ki of 0.0769 µM.
